Assay results: BigSolDB 2.1

O=C(O)c1cc(O)c(O)c(O)c1
solubility (mole fraction)
Conditions	293.15 K	298.15 K	303.15 K	308.15 K	313.15 K	318.15 K
in acetonitrile	0.0274	0.0341	0.0355	0.0378	0.0391	0.0405
in isopropanol	0.028	0.0348	0.0362	0.0386	0.04	0.0409
in n-propanol	0.0332	0.0413	0.0429	0.0458	0.0474	0.0486
in water	0.00127	0.00148	0.00204	0.00252	0.0032	0.0038
